From ChEMBL document CHEMBL1150708, “Isolation and bioactivity of new tanshinones” (1987) come the findings set out here.

Assay type in all cases: functional
A short description of assay [1]: Antiplatelet activity against platelet assessed as inhibition of ADP-induced platelet aggregation at 50 ug/ml by turbidimetry.
A short description of assay [2]: Antiplatelet activity against platelet assessed as inhibition of collagen-induced platelet aggregation at 50 ug/ml by turbidimetry.
Assay [3] can be described thus: Antiplatelet activity against platelet assessed as inhibition of collagen-induced platelet aggregation at 5 ug/ml by turbidimetry.
Assay [4] in a line: Antiplatelet activity against platelet assessed as inhibition of collagen-induced platelet aggregation at 10 ug/ml by turbidimetry.
A short description of assay [5]: Antiplatelet activity against platelet assessed as inhibition of ADP-induced platelet aggregation at 10 ug/ml by turbidimetry.

The inhibition is how much of the control response was suppressed. Take `CC(=O)Oc1ccccc1C(=O)O` [ASPIRIN]: the inhibition at 50 µg/mL is 74% in assay [1] and 72% in assay [2].
With `Cc1coc2c1C(=O)c1ccc3c(c1C2=O)CCCC3(C)CO` (stereo not given) [ISOTANSHINONE IIB], in assay [3], the inhibition at 5 µg/mL was 4%. In addition, the inhibition at 10 µg/mL in assay [4] was 81%; in assay [5], 40%.
